“And” between values parts separate entries of the source, which are not always exact repeats. Equal values may be shown once. Read-outs that look alike come from different tables or passages of the source.

This is an account of results in patent publication US20050014762A1, “Combination” (priority 2001, published 2005).

For the assay, the system named is SRS-A-mediated bronchoconstriction after ovalbumin (OVA) challenge in guinea pigs. In words: SRS-A-mediated (OVA-induced) bronchoconstriction in anaesthetized, mechanically ventilated sensitized guinea pigs. It counts as in vivo, guinea pig. The settings on record: Cavia porcellus. As to the method: Male Dunkin Hartley guinea pigs; body weight 200-250 g at sensitization and 350-500 g when performing the experiments. Ovalbumin (OVA) was used as allergen for active sensitization. Therefore, 20 μg OVA together with 20 mg Al(OH)3 suspended in 0.5 ml 0.9% NaCl-solution (=saline) were administered i.p. to each animal on 2 consecutive days. […] Controls received the drug-free methocel-solution 1 h before OVA-challenge as placebo (n=12). OVA-challenge and lung function measurements were performed in anaesthetized and mechanically ventilated animals. […] To enhance the SRS-A-mediated bronchoconstriction, the animals were pretreated with: indomethacin 10 mg/kg i.v. 20 min before OVA-challenge to block the cyclooxygenase pathway and to enhance the production of lipoxygenase-mediators, mainly leukotrienes. […] The time-effect curve for the delta-%-decrease of compliance and conductance was determined up to 12 min post challenge. Blood pressure and heart rate were monitored to control vitality. The area under the time-delta-%-decrease curves (AUC) was determined for each animal. On basis of the AUC-values, the inhibition of the SRS-A-induced decrease of compliance and conductance was calculated in reference to placebo. […] Measured and calculated ED50-values were compared by an unpaired t-test for statistical significant differences.

By ED50 is commonly meant the midpoint of the dose-response relation. As for `O=C(Nc1c(Cl)cncc1Cl)c1ccc(OC(F)F)c(OCC2CC2)c1` [ROFLUMILAST, 3-cyclopropylmethoxy-4-difluoromethoxy-N-(3,5-dichloropyrid-4-yl)-benzamide], the ED50 runs as follows: (read-out: ED50, inhibition of decrease of airway compliance) 0.58 mg/kg and 1.45 µmol/kg; (read-out: ED50, inhibition of decrease of airway conductance) 0.69 mg/kg and 1.73 µmol/kg.
